Measured values as given in US20230301947A1, “COMPOUND FOR PREVENTING AND TREATING PSYCHIATRIC DISORDERS AND USE THEREOF” (SHANGHAI INSTITUTE OF MATERIA MEDICA, CHINESE ACADEMY OF …, priority 2020, published 2023).

How the values were obtained:
TREK-1 ion channel = biological target: T1, TREK-1 ion channel (Homo sapiens, UniProt O95069); test: Whole-cell membrane clamp recording of TREK-1 channel current in transfected CHO-K1 cells; format: cell-based
T1 construct: expressed in transfected cells; host or cells: CHO-K1
T1 sequence (O95069 1-426): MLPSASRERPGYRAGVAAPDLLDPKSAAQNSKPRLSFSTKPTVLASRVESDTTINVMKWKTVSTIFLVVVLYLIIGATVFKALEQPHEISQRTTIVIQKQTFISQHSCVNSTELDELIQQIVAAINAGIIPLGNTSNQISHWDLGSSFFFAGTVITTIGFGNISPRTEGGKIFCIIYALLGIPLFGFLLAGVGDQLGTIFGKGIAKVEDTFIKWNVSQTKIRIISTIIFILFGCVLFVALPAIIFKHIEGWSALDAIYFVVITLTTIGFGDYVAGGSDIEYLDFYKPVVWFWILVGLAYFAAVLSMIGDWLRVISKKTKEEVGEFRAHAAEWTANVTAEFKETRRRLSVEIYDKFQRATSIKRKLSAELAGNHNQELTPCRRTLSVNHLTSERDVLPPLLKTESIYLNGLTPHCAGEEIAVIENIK
Method: Cells were transfected using a cationic liposome transfection method, and the target gene TREK-1 plasmid protein was heterologously expressed in CHO-K1 cells according to the operating standard instructions of Lipo3000 transfection reagent. The ion channel protein was expressed in the cells for 24-48 h followed by electrophysiological experiments.
Whole-cell membrane clamp recording mode was used for electrophysiological experiments. The transfected cells were placed in a bath containing extracellular fluid, the resistance of the drawn electrode is 3-7 MΩ, the electrode was filled with intracellular fluid, the polished electrode was used to contact the cell membrane, the positive voltage was removed and the negative voltage was gently applied to form a high impedance seal, and then the cell membrane was broken by continuing to apply negative voltage, i.e. whole-cell recording mode was formed. The sampling frequency of the electrophysiological amplifier was 10 kHz, and the data sampling was controlled using a DigiData 1440A conversion interface. The software used for collecting and analyzing whole-cell recording experimental data is Clamfit 10.7, the software used for data analysis and graphing is Origin 8.1, and the software used for statistical analysis is SPSS.
CLA096: Three doses were set up in this example. The drug was firstly dissolved in DMSO and then diluted with tri-distilled water to […]: 5 µM, 10 µM and 20 µM, respectively.
The experiment was performed using a cell membrane clamp method to record the current of TREK-1 ion channel in whole cells. Protocol A0 was chosen to record the currents of cells at -80 mV, -60 mV, -40 mV, -20 mV, 0 mV, 20 mV, 40 mV, 60 mV and 80 mV, and Protocol A0 was repeated with different concentrations such as 5 µM, 10 µM and 20 µM of CLA096 being perfused, respectively. After administration, whether it can be eluted was tested.

C57 mice [1] = test: Forced swimming experiment in normal mice; format: in vivo; details: C57 male mice, intraperitoneal; for immobility time in forced swimming test: compared with vehicle group
Method: (§1) The forced swimming test system is primarily used in antidepressant studies.
(§2) Experimental operation: Mice were individually placed in a cylindrical glass tank 30 cm high and 20 cm in diameter, with a water depth of 15 cm (20 cm for rats), so that the mice are unable to escape from the glass tank and their feet and tails can not touch the bottom of the tank. The water temperature was 23° C.-25° C. The mice were filmed for 6 minutes after entering the water. Since most of the mice were very active in the first two minutes, the last 4 minutes of immobility time were calculated (criteria for determining immobility: the mice stopped struggling in the water, immobility and fine limb movements to maintain balance or float). Groups of mice were operated in parallel.
CLA096: Three doses were set up in this example, the low, medium and high doses were 5 mg/kg, 20 mg/kg and 40 mg/kg, respectively. The compound was dissolved in 0.5% Tween-40 and sonicated, and should be used right after it was ready.
Fluoxetine (FLX): FLX with a dose of 10 mg/kg; dissolved in double distilled water, and should be used right after it was ready.

C57 mice [2] = test: Novelty-suppressed feeding experiment in normal mice; format: in vivo; details: C57 male mice, intraperitoneal
Method: Novelty-suppressed feeding experiment (NSF) is a conflict between feeding occurred in a novel environment in a state of starvation after fasting and fear of novel environment. Long-term administration of antidepressant drugs can reduce the conflict response ability of animals, which is manifested by shortened incubation period of the start of feeding. This model is currently widely used in the evaluation of antidepressant and anti-anxiety efficacy.
The experimental equipment was a 35 cm*35 cm*30 cm (L*W*H) open box, which was overspread with substrate, and a white filter paper with a diameter of 5 cm was placed in the open box, and 2 pieces of food were placed in the middle of the filter paper. The animals were fasted for 12 h before the administration of the drug.
Two hours before the behavioral test, the animal were moved into the functional room for 2 h to acclimatize. […] The animal were placed from the edge of the experimental open box, and the animal were regarded as successful feeding if their mouths touched the food within 10 min, and then the animal were removed immediately and the time of successful feeding (i.e. Novelty latency) was calculated. The animal were then placed in the normal feeding cage and the time from placement to feeding (i.e. Habituation latency) was also calculated. […] The whole experiment was recorded by camera, and the data were processed and analyzed offline. […]

SD rats [3] = test: Forced swimming test in rats (control and ACTH-induced refractory depression model); format: in vivo; details: 20 mg/kg intraperitoneal, tested 30 min after administration; for antidepressant effect in forced swimming: ACTH group SD rats (refractory depression model)
Method: as §1, §2
An animal model of refractory depression was induced in SD rats by continuous intraperitoneal injection of adrenocorticotropic hormone (ACTH) for 3 weeks. This model can block the effects of tricyclic antidepressants and some SSRIs antidepressants, but can not block the efficacy of ketamine and electroconvulsive therapy (ETC). Since ketamine and ETC have specific efficacy in refractory depression, this animal model can be used to preliminary evaluate whether the drug have efficacy in refractory depression.
1. SD rats in the model group (ACTG) were continuously injected with ACTH for 3 weeks (once/day), and the test drug was injected intraperitoneally 24 h after the last administration of ACTH. The rats in the control group (CON) were continuously injected intraperitoneally with 0.9% saline (once/day) and similarly the test drug was injected intraperitoneally 24 h after the last administration of saline.
3. After the open-field experiment, ACTH was continued to be injected, and after 24 h, the above test drug was injected intraperitoneally and forced swimming was tested 30 min after the administration.

SD rats [4] = test: Open field test in rats (control and ACTH-induced refractory depression model); format: in vivo; details: normal animals and ACTH model animals (SD rats); 20 mg/kg intraperitoneal, tested 30 min after administration
Text: Open field test, also known as the open box test, is a method to evaluate the autonomous behavior, exploratory behavior and anxiety-like behavior of experimental animals in a novel environment. The frequency and duration of the normal activities, the fear of the open environment and the exploration of the new environment and other behaviors of the experimental animals in the open box are used to reflect the autonomous behavior and exploratory behavior of the experimental animals in the unfamiliar environment. The results of the open-field experiments were analyzed to evaluate the depression and anxiety-like behaviors of the animals.
Experimental operation: the experimental animals were placed in the behavior room 2 hours before the experiment. The animals were placed in the center of the bottom of a black plastic box (size 100*100*45 cm) during the experiment, while video filming was performed. The experiment time was 10 minutes and was conducted in a quiet environment. […] The video was analyzed using the animal spontaneous activity analysis software to obtain information of central area activity time (anxiety-like behavior), total distance of activities (exercise ability), and number of wall climbing (novel environment exploratory behavior) and the like, which can be used to judge the depression or anxiety-like behavior of the animal and degree thereof. […]

mice = test: 14-day subacute toxicity test in mice; format: in vivo; details: male and female mice; 5, 50 and 100 mg/kg intraperitoneal, once a day, 14 days
Method: Test drug configuration: CLA096: Three doses were set up: 5 mg/kg, 50 mg/kg and 100 mg/kg, respectively.

[5] = CLA096 5, 20, 40 mg/kg vs positive control fluoxetine

CN(Cc1ccccc1)C(=O)CN(c1ccc(Cl)cc1)S(C)(=O)=O [CLA096, N-benzyl-2-(N-(4-chlorophenyl)methylsulfonylamino)-N-methylacetamide]
inhibition rate of TREK-1 channel open current (TREK-1 ion channel; 5 µM CLA096): 0.75 ± 0.02 | inhibition rate of TREK-1 channel open current (TREK-1 ion channel; 10 µM CLA096): 0.55 ± 0.05 | inhibition rate of TREK-1 channel open current (TREK-1 ion channel; 20 µM CLA096): 0.59 ± 0.01 | effect on forced swimming immobility time compared with fluoxetine (C57 mice [1]; [5]): significantly better than fluoxetine | immobility time in forced swimming test (C57 mice [1]; CLA096 5, 20 and 40 mg/kg): significantly reduces the immobility time of animals at all doses | effect on feeding latency compared with fluoxetine (C57 mice [2]; [5]): significantly better than fluoxetine | latency of feeding of fasted mice (novelty-suppressed feeding) (C57 mice [2]; CLA096 5, 20 and 40 mg/kg, compared with vehicle group): significantly reduced the latency value | antidepressant effect in forced swimming (SD rats [3]): remained significant | immobility time of forced swimming (SD rats [3]; control (CON) group SD rats): significantly reduced the immobility time | swimming time in forced swimming (SD rats [3]; control (CON) group SD rats): significantly increased the swimming time | total movement distance in open field (SD rats [4]): no significant difference | body weight change (mice): no significant changes in body weight

CNCCC(Oc1ccc(C(F)(F)F)cc1)c1ccccc1 (stereo not drawn) [Fluoxetine, reference compound]
immobility time in forced swimming test (C57 mice [1]; fluoxetine 10 mg/kg (table says 20)): significantly reduces the immobility time

CN(C)CCCN1c2ccccc2CCc2ccccc21 [Imipramine]
antidepressant effect in forced swimming (SD rats [3]): blocked | immobility time of forced swimming (SD rats [3]; control (CON) group SD rats): significantly reduced the immobility time

CNC1(c2ccccc2Cl)CCCCC1=O (stereo not drawn) [Ketamine]
antidepressant effect in forced swimming (SD rats [3]): remained significant | immobility time of forced swimming (SD rats [3]; control (CON) group SD rats): significantly reduced the immobility time | total movement distance in open field (SD rats [4]): no significant difference
